Literature values in the CATMoS acute toxicity set (Mansouri et al. 2021).
Several values for one entry are separate records, joined by “and”; a condition that tells them apart may be missing. Identical values can stand only once.

experiment: rat acute oral toxicity; details: in vivo

SMILES | LD50
CCCCOC(=O)[C@@H](C)Oc1ccc(Oc2ccc(C(F)(F)F)cn2)cc1 | 2710 mg/kg
CC(C)NCC(O)COc1cccc2cc(C(C)O)oc12 (centres undefined) | 2130 mg/kg
CCC(OC(C)=O)C(CC(C)NC)(c1ccccc1)c1ccccc1 (centres undefined) | 44 mg/kg
NS(=O)(=O)c1ccc(Cl)c(S(N)(=O)=O)c1 | 340 mg/kg
CC(C)OP(=S)(OC(C)C)SCn1nc(-c2ccccc2)ccc1=O | 25000 mg/kg
CCC(=O)OCc1ccc(OC)cc1 | 3330 mg/kg
CCOCN(C(=O)CCl)c1c(C)cccc1OC(C)C | 2700 mg/kg
NC1CCCC(N)C1 (centres undefined) | 390 mg/kg
NC(Cc1ccc(Oc2ccc(N(CCCl)CCCl)cc2)cc1)C(=O)O (centres undefined) | 620 mg/kg
O=C(O)C[C@H](NC(=O)COc1ccc(Cl)cc1Cl)C(=O)O | 1000 mg/kg
CCN(CCNC(=O)SCC(C)C)C(=O)SCC(C)C | 2710 mg/kg
CCOC(C1=NCC(C)(C)CN1)c1ccc(C(C)C)cc1 (centres undefined) | 220 mg/kg
CCOCCN(C(=O)CCl)C(=C(C)C)c1ccccc1 | 983 mg/kg
COP(=S)(OC)Oc1ccc(S(C)(=O)=O)c(C)c1 | 125 mg/kg
CCC1CCC(C)NC1 (centres undefined) | 540 mg/kg
CSc1ccccc1 | 891 mg/kg
COc1ccc2c3c1O[C@H]1[C@@H](O)C=C[C@H]4[C@@H](C2)[N@@+](C)([O-])CC[C@@]341 | 1600 mg/kg
CC(C)Nc1nc(Cl)nc(NC(C)C)n1 | 3840 mg/kg
C[N+](C)(C)CCC[N+]1(C)CC2C3C=CC(CC3)C2C1 (centres undefined) | 1730 mg/kg
CCOC(=O)c1ccccc1S(=O)(=O)NC(=O)Nc1nc(Cl)cc(OC)n1 | 4100 mg/kg
CCCCOc1ccc(C(CN(C)C)C(C)CC)cc1Cl (centres undefined) | 1050 mg/kg
C=CCSC(C)C1(CC=C)C(=O)N=C(O)NC1=O (centres undefined) | 346 mg/kg
O=C(O)c1ccccc1OP(=O)(O)O | 1100 mg/kg

SMILES | LD50
C1CCc2c(OCCN3CCOCC3)n[nH]c2C1 | 1600 mg/kg
CC(CC(c1ccccc1)c1ccccc1)NC(C)(C)C (centres undefined) | 465 mg/kg
CC1(S(=O)(=O)O)CC(=O)c2ccccc2C1=O (centres undefined) | 4510 mg/kg
CNC(=O)Oc1cc(C)c(C)c(C)c1 | 178 mg/kg
O=C1[C@H]2CCCC[C@H]2C(=O)N1CCCCN1CCN(c2nsc3ccccc23)CC1 | 870 mg/kg
COc1cccc(CCc2ccccc2OCC(CN(C)C)OC(=O)CCC(=O)O)c1 (centres undefined) | 4400 mg/kg
CCCCC(CC)(C(=O)OCC)C(=O)OCCN(CC)CC (centres undefined) | 638 mg/kg
C=CCC1=C(C)[C@H](OC(=O)[C@H]2[C@H](C=C(C)C)C2(C)C)CC1=O (relative stereo) | 1320 mg/kg
CCCCC(CC)COC(C[n+]1ccccc1)c1ccc(C2CCCC2)cc1 (centres undefined) | 250 mg/kg
CNC(=O)ON=C1C(Cl)C2CC(C#N)C1C2 (centres undefined) | 24 mg/kg
O=S(=O)(Cl)CCl | 372 mg/kg
CCNc1nc(NC(C)(C)C)nc(SC)n1 | 2040 mg/kg
NCCCNCCSP(=O)(O)O | 826 mg/kg
COC1CCC(OC2C(C)C(O)(C(C)C(=O)O)OC(CC3CC(OC)C(C)C4(O3)OC(C)(C3CCC(C5CCC(C6OC(C)(O)C(C)C(OC)C6C)O5)O3)C(OC)C4C)C2(C)OC)OC1C (centres undefined) | 7 mg/kg
CC1CCCC(C)N1CCCNc1n[nH]c2ccccc12 (centres undefined) | 700 mg/kg
C[N+]1(C)CCCC1COC(=O)C(O)(c1ccccc1)C1CCCCC1 (centres undefined) | 780 mg/kg
CCS(=O)CSP(=S)(OC(C)C)OC(C)C (centres undefined) | 25 mg/kg
CCOP(=O)(OCC)SCS(=O)CC (centres undefined) | 1 mg/kg
CCS | 682 mg/kg
C=C(CC(=O)c1ccc(-c2ccccc2Cl)cc1)C(=O)O | 2400 mg/kg
CC1CNCC(C)O1 (centres undefined) | 2830 mg/kg
O=C(CF)NC(=O)Nc1ccccc1 | 25 mg/kg
CC(C)c1ccc(N)cc1 | 985 mg/kg

SMILES | LD50
C=COC(=O)CCC | 8530 mg/kg
CCOC(=O)C1(c2ccccc2)CCN(CCOCCO)CC1 | 230 mg/kg
CC(=O)OC12CCC(C)=CCC13CCC2C(C)(C=CC=C(C)C(=O)O)OC3=O (centres undefined) | 219 mg/kg
CCCCCCC(=O)OCCN1CCN(CCCN2c3ccccc3Sc3ccc(C(F)(F)F)cc32)CC1 | 230 mg/kg
CC(C)c1noc2nc(C(C)(C)C)ncc12 | 15400 mg/kg
O=C(O)c1ccc([N+](=O)[O-])cc1 | 1960 mg/kg
Oc1ccc2ccccc2c1 | 1960 mg/kg and 2120 mg/kg
O=COCCCc1ccccc1 | 4090 mg/kg
CC(C)CCCC(C)(C)O | 6800 mg/kg
CCOP(=O)(OC=C(SCC)SCC)OCC | 15 mg/kg
CN(C)c1nc(N(C)C)nc(N(C)C)n1 | 350 mg/kg
COC(=O)c1ccccc1C(=O)c1ccc(OCCN2CCCCC2)cc1 | 3600 mg/kg
CC(C)N(C)C | 684 mg/kg
CCCCCC#CC(=O)OC | 1530 mg/kg
C=CCNP(=O)(OC=C(Cl)Cl)OCCCl (centres undefined) | 25 mg/kg
CCCCCC(=O)NO | 3200 mg/kg
CC(=O)Nc1cccc2c3c([nH]c12)CCCC3 | 3860 mg/kg
COP(=S)(OC)SCSc1ccccc1Cl | 13 mg/kg
C=C[C@@]1(C)CC(=O)[C@]2(O)[C@@]3(C)[C@@H](O)CCC(C)(C)[C@@H]3[C@H](O)[C@H](OC(C)=O)[C@@]2(C)O1 | 2550 mg/kg
CCCCCCCCCCCCCCCCCCOC(=O)Cc1ccc(N(CCCl)CCCl)cc1 | 200 mg/kg
CC1=CC(=O)OC1=O | 2600 mg/kg
c1ccc2c(c1)CCN1CCN=C1C2 | 60 mg/kg
CCCCCCCCCCCCCCCCOC(=O)Cc1ccc(N(CCCl)CCCl)cc1 | 100 mg/kg
